# Laboratory results from patent US20130224855A1, “CULTURE MEDIUM FOR EUKARYOTIC CELLS” (priority 2010, published 2013).
# Peptide text beside a SMILES is read from it.
# System: IgG expressing CHO cell line (CHO-2: ATCC CRL 11397, producing IgG4)
# Test: Growth and production curves of IgG expressing CHO cells in suspension culture in supplemented chemically defined medium
# Type: cell-based, Chinese hamster
# Conditions: for Cell growth (area under curve) after 14 days: dimensionless AUC
# Method: The cell culture assay was carried out in commercially available IS CHO-CD medium (Irvine Scientific, Cat. No. 91119). […] Penicillin and streptomycin were added to prevent any bacterial growth during the growth assay. The media was supplemented with β-Alanine, γ-glutamyl cysteine, glycyl-glycine, L-homoserine or N-acetyl methionine, all purchased from Sigma Aldrich, Germany, in varying concentrations (1×10^-5 to 1×10^-1% (w/v), see Table 2). The supplemented medium was mixed with a vortex mixture, filtered using a 0.22 μm filter and subsequently used in a growth assay. An IgG expressing CHO cell line was used (CHO-2: ATCC CRL 11397, producing IgG4). The cell lines were grown in the adherent conditions for a few passages and once confluent, they were transferred to animal-free conditions in the supplemented media described in Example 5. […] Chemically defined media with and without added amino acid derivatives were tested. No fresh media was added during the growth assay. Cells were counted using the […] counter (Innovatis, Germany). The cell counts were used to calculate the area under the growth curve and represented as dimensionless area under curve (AUC) values as described in detail in Ling, C. X, Huang, J. and Zhang, H. (2003), International joint conferences on artificial intelligence, pp. 329-341. The supernatant samples were taken every alternate days for the IgG production measurements. IgG production was measured using sandwich ELISA method. […] The cells were visually inspected using a phase contrast microscope (Zeiss Axiovert 25, 400× magnification). […] Only single cells were observed and no aggregation of cells was seen. The cell shape was also positively affected. […] This was in contrast with the observation that a lot of cell aggregates were present in CHO cell cultures grown in chemically defined medium without amino acid derivatives.
# [1] = added at 1 × 10^−1 % w/v in IS CHO-CD medium
# [2] = added at 1 × 10^−1 % w/v in IS CHO-CD medium, ratio of cumulative IgG (mg/ml) and AUC at day 11
# [3] = added at 1 × 10^−2 % w/v in IS CHO-CD medium
# [4] = added at 1 × 10^−3 % w/v in IS CHO-CD medium
# [5] = added at 1 × 10^−4 % w/v in IS CHO-CD medium
# [6] = added at 1 × 10^−5 % w/v in IS CHO-CD medium
SMILES,Cell growth (area under curve) after 14 days [1],Specific IgG production after 11 days [2],Specific IgG production after 11 days [3],Cell growth (area under curve) after 14 days [3],Specific IgG production after 11 days [4],Cell growth (area under curve) after 14 days [4],Specific IgG production after 11 days [5],Cell growth (area under curve) after 14 days [5],Specific IgG production after 11 days [6],Cell growth (area under curve) after 14 days [6]
NCC(=O)NCC(=O)O [Glycyl-glycine] (H-Gly-Gly-OH),50.6,86.6,95.8,48.2,104.2,49.6,113.5,47.7,102.0,51.0
N[C@@H](CCO)C(=O)O [L-homoserine],45.7,122.0,72.0,59.1,96.8,39.4,,,,
CSCC[C@H](NC(C)=O)C(=O)O [N-acetyl methionine],48.6,91.9,90.4,47.9,94.4,46.0,90.3,38.6,81.3,41.2
NCCC(=O)O [β-alanine],62.5,92.8,108.6,51.3,97.1,50.6,,,,
N[C@@H](CCC(=O)N[C@@H](CS)C(=O)O)C(=O)O [γ-glutamyl cysteine],46.1,78.2,105.9,42.8,68.33,58.0,77.2,47.6,72.5,58.9
